Data on 85 compounds can be found in the COVID Moonshot data (paper PMC7615835).

“And” between values parts separate entries of the source, which are not always exact repeats. Equal entries are not always repeated.

The target of the assay is SARS-CoV-2 Main Protease (SARS-CoV-2) (UniProt P0DTD1).

Take `CN1CCN(c2ncc(C(C(=O)NCCc3cccc(F)c3)N(C(=O)c3cocn3)c3ccc(C(C)(C)C)cc3)cn2)CC1` (stereo not given): the half-inhibitory concentration (IC50) (usually the concentration that gives 50% inhibition) was > 99.5 µM.
`CS(=O)(=O)N1CCc2ccc(Cl)cc2C1C(=O)Nc1cncc2ccccc12` (stereo not given) had an IC50 of 1.6 µM.
Regarding `CNC(=O)CN1Cc2ccc(Cl)cc2[C@]2(CCN(c3cncc4c3CCCC4)C2=O)C1` (stereo in doubt), the half-inhibitory concentration (IC50) is > 99.5 µM.
For the compound `N#CC1(CS(=O)(=O)N2Cc3ccc(Cl)cc3[C@H](C(=O)Nc3cncc4ccccc34)C2)CNC1` (stereo in doubt), the concentration for half-maximal inhibition (IC50) is 0.0562 µM and 0.0849 µM.
`O=C(CCl)N1CC2CC1CN2Cc1cccc(Cl)c1` (stereo not given): the IC50 worked out at 2.17 µM.
Take `O=C(Cc1cc(Cl)cc(N2CCN(c3nsc4ccccc34)CC2)c1)Nc1cncc2ccccc12`: the IC50 was 3.34 µM.
Take `Cc1cc(C)n(-c2cc(Cl)cc(CC(=O)Nc3cncc4ccccc34)c2)c(=O)c1CN`: the IC50 worked out at 2.41 µM.
As for `C=CC(=O)N(c1cc(C(C)(C)C)on1)C(C(=O)NCCc1cccc(F)c1)c1cncc(O)c1` (stereo not given), the figure is > 99.5 µM; as for `CN1C(=O)CC(O)(C(=O)Nc2cncc3ccccc23)c2cc(Cl)ccc21` (stereo not given), 20.7 µM; as for `N#CC1(CS(=O)(=O)N2Cc3ccc(Cl)cc3C3(CCN(c4cncc5ccccc45)C3=O)C2)CCOCC1` (stereo not given), 0.338 µM.
As for `CCN(CC)S(=O)(=O)c1ccc(S(=O)(=O)N2CCN(S(N)(=O)=O)CC2)cc1`, the figure is > 99.5 µM; as for `COc1ccc(-c2ccsc2S(=O)(=O)N2CCN(C(=O)CCl)CC2)cc1`, 1.05 µM; as for `CN1CCCN(c2ccc(N(C(=O)c3cocn3)C(C(=O)NCCc3cccc(F)c3)c3cccnc3)cc2)C1=O` (stereo not given), 61 µM.
Take `Cc1cc(C)[n+](C)c(C#N)n1`: the IC50 was > 99.5 µM.
In the case of `O=C(NCCc1cccc(F)c1)C(c1cccnc1)N(C(=O)c1cnc[nH]1)C1CCN(c2ccccc2F)C1` (stereo not given) it was > 99 µM; in that of `O=C(Cc1cc(Cl)cc(Nc2ncc(F)cc2Br)c1)Nc1cncc2ccccc12`, 1.84 µM.
As for `O=C(CCl)N1CCN(S(=O)(=O)c2ccsc2)CC1`, the figure is 1.63 µM; as for `O=C(Nc1cncc2ccccc12)C1CN(S(=O)(=O)C2CCOC2)Cc2ccc(Cl)cc21` (stereo not given), 0.152 µM; as for `O=C(Cc1cccc(Cl)c1)Nc1[nH]nc2cccc(F)c12`, > 99.5 µM.
As for `CC(C)(C)c1ccc(N(C(=O)c2cocn2)C(C(=O)NCCc2cccc(F)c2)c2c(N3CCOCC3)nc3ccccn3c2=O)cc1` (stereo not given), the figure is > 99.5 µM; as for `O=C(Cc1cc(Cl)cc(Nc2cccc(F)c2[N+](=O)[O-])c1)Nc1cncc2ccccc12`, 1.99 µM; as for `CC(C)(CNC(=O)C1CNC(=O)N1)N1CCc2ccccc2C1` (stereo not given), > 99.5 µM.
For the compound `O=C(Cc1cc(Cl)cc(Nc2cccc(OC(F)(F)F)c2)c1)Nc1cncc2ccccc12`, the concentration for half-maximal inhibition (IC50) is 1.93 µM.
As for `COc1cc(N(C(=O)c2cnc[nH]2)C(C(=O)NCCc2cccc(F)c2)c2cccnc2)ccc1S(=O)(=O)N(C)C` (stereo not given), the figure is > 99 µM.
As to `C[C@]1(C(=O)Nc2cncc3ccccc23)CCNc2cc(Cl)c(Cl)cc21` (stereo in doubt), the concentration for half-maximal inhibition (IC50) stood at 97.7 µM.
In turn, `Cc1ccncc1NC(=O)Cc1cc(Cl)cc(OCc2ncn[nH]2)c1` registered an IC50 of 37 µM.
The compound `Cc1cc(Cl)cc(CC2CCN(C(=O)CCl)CC2)c1` displayed a half-inhibitory concentration (IC50) of 3.57 µM.
The compound `Cc1noc(C)c1CCNC(=O)Nc1cn(CC(C)C)c(=O)c2ccccc12` displayed an IC50 of 27.7 µM.
As to `Cc1cc(C)n2ncc(C(=O)Nc3ccc4ncsc4c3)c2n1`, the 50% inhibitory concentration (IC50) is > 99.5 µM.
As to `O=C(Cc1cc(Cl)cc(Nc2ccncc2I)c1)Nc1cncc2ccccc12`, the half-maximal inhibitory concentration (IC50) was 1.68 µM.
As to `COc1cc(COc2cc(Cl)cc(CC(=O)Nc3cnccc3C)c2)ccc1OC(F)F`, the 50% inhibitory concentration (IC50) is > 99.5 µM.
In the case of `COC(=O)[C@@H]1CC[C@H](NC(=O)C(c2cccnc2)N(C(=O)c2cocn2)c2ccc(C(C)(C)C)cc2)C1` (stereo in doubt) it was 2.38 µM; in that of `O=C(Cc1cc(Cl)cc(NCCCN2CCS(=O)(=O)CC2)c1)Nc1cncc2ccccc12`, 1.92 µM.
For the compound `COc1ccc2c(NC(=O)Cc3cccc(Cl)c3)[nH]nc2c1`, the IC50 was > 99.5 µM.
In the case of `O=C(Cc1cc(Cl)cc(N2CCN(c3ccc(Br)cn3)CC2)c1)Nc1cncc2ccccc12` it was 3.17 µM; in that of `CNC(=O)CN1CC2(CCN(c3cncc4cccc(Cl)c34)C2=O)c2cc(Cl)ccc2C1=O` (stereo not given), 1.67 µM.
In the case of `C[C@H]1CN(C(=O)OC(C)(C)C)CCN1c1cc(Cl)cc(CC(=O)Nc2cncc3ccccc23)c1` (stereo in doubt) it was 2.19 µM; in that of `CC(C)(C)c1ccc(N(C(=O)CCC#N)C(C(=O)NCCc2cccc(F)c2)c2cccnc2)cc1` (stereo not given), 3.8 µM.
As for `Nc1cccc2c(=O)[nH]n(-c3cc(Cl)cc(CC(=O)Nc4cncc5ccccc45)c3)c(=O)c12`, the figure is 5.92 µM.
Regarding `O=C(Cc1cc(Cl)cc(Nc2c(Cl)cccc2[N+](=O)[O-])c1)Nc1cncc2ccccc12`, the IC50 is 2.37 µM.
As to `CN(CC#N)S(=O)(=O)N1Cc2ccc(Cl)cc2C2(CCN(c3cncc4ccccc34)C2=O)C1` (stereo not given), the IC50 came to 0.407 µM.
In the case of `O=C(Cc1cccnc1)Nc1cccc(OC2CC(=O)N2)c1` (stereo not given) it was 82.6 µM and 94.4 µM.
For `CC(C)(C)c1ccc(N(C(=O)c2sc(N3CCOCC3)nc2Cl)C(C(=O)NCCc2cccc(F)c2)c2cccnc2)cc1` (stereo not given), the IC50 was > 99.5 µM.
As for `Cc1ccncc1NC(=O)Cc1cc(Cl)cc(NCC(C)(C)C#N)c1`, the figure is 36.5 µM.
For the compound `Cn1cc(C(=O)N(c2ccc(C(C)(C)C)cc2)C(C(=O)NCCc2cccc(F)c2)c2cccnc2)ncc1=O` (stereo not given), the half-maximal inhibitory concentration (IC50) is > 99.5 µM.
As for `Cn1ncc2cc(N(C(=O)c3cnc[nH]3)C(C(=O)NCCc3cccc(F)c3)c3cccnc3)ccc21` (stereo not given), the figure is > 99 µM; as for `N#Cc1ccc2c(NC(=O)Cc3cccc(Cl)c3)cncc2c1`, 9 µM; as for `COc1ccc(C(Cc2cnn(C)c2)C(=O)Nc2c[nH]c3ccccc23)cc1` (stereo not given), > 99.5 µM.
In the case of `CC1(C(=O)Nc2cncc3ccccc23)CN(CC2CC2)S(=O)(=O)c2ccc(Cl)cc21` (stereo not given) it was 0.634 µM.
As for `O=C1C(=O)N(Cc2ccc(Br)cc2)c2ccccc21`, the concentration for half-maximal inhibition (IC50) was > 198 µM.
In the case of `O=C1CC(Oc2cc(Cl)cc(CC(=O)Nn3cnc4ccccc43)c2)N1` (stereo not given) it was 82.1 µM.
`O=C(NCC1CCCCC1)[C@@H]1CN(C(=O)CCl)CCN1S(=O)(=O)c1ccsc1` (stereo in doubt) showed an IC50 of 1.1 µM.
As for `O=C(Cc1cc(Cl)cc(Nc2ccc(C(F)(F)F)cc2[N+](=O)[O-])c1)Nc1cncc2ccccc12`, the figure is 2.24 µM.
In the case of `O=C(NCCc1cccc(F)c1)C(c1cccnc1)N(C(=O)c1ccco1)c1ccc(-c2n[nH]c3c2COCC3)cc1` (stereo not given) it was 43 µM; in that of `N#Cc1ccc(N(C(=O)c2ccco2)C(C(=O)NCCc2cccc(F)c2)c2cccnc2)cc1` (stereo not given), 10.4 µM; in that of `O=C(Cc1cc(Cl)cc(Nc2ccc(I)cc2F)c1)Nc1cncc2ccccc12`, 2.24 µM.
Regarding `COc1ccc(C2CC(c3cccs3)=NN2C(=O)CCl)cc1OC` (stereo not given), the IC50 was 1.75 µM and 2 µM.
In the case of `CSC1=C(C#N)C2(CCCCC2)C(C#N)=C(NC(=O)CCl)N1` it was 0.745 µM and 1.75 µM; in that of `Cc1ccncc1NC(=O)Cc1cc(Cl)cc(NC2(C)CCC(F)(F)CC2)c1`, 14.7 µM.
Turning to `COCc1nc(C)c(C(=O)N(c2ccc(C(C)(C)C)cc2)C(C(=O)NCCc2cccc(F)c2)c2cccnc2)s1` (stereo not given), the IC50 is > 99.5 µM.
With `COc1ncc(NC(=O)Cc2cccc(Cl)c2)c2ccccc12`, the IC50 was > 99.5 µM.
In the case of `O=C(NCCc1cccc(F)c1)C(c1cccnc1)N(C(=O)c1cocn1)c1cnn(-c2ccccc2)c1` (stereo not given) it was 2.95 µM; in that of `Cn1ncc2cncc(NC(=O)C3CN(S(=O)(=O)CC4(C#N)CC4)Cc4ccc(Cl)cc43)c21` (stereo not given), 2.53 µM; in that of `Cc1ccccc1C(C)N(C(=O)c1cocn1)C(C(=O)NCCc1cccc(F)c1)c1cccnc1` (stereo not given), > 99.5 µM.
`O=C(Cc1cc(Cl)cc(NCc2ccc(Br)cc2)c1)Nc1cncc2ccccc12`: the IC50 is > 99.5 µM.
In the case of `COc1cc(OC)cc(-c2nc(-c3c(C)nc4sccn34)no2)c1` it was > 99.5 µM; in that of `O=C1CCCN(S(=O)(=O)c2cccc(F)c2)CC1`, > 99.5 µM; in that of `O=C(c1cc(=O)[nH]c2ccccc12)N1CCN(Cc2cccc(Cl)c2)CC1`, 4.57 µM.
Regarding `NS(=O)(=O)NCCNS(=O)(=O)c1ccccc1[N+](=O)[O-]`, the half-maximal inhibitory concentration (IC50) was > 99.5 µM.
As for `Cc1nc2cc(C(=O)NNc3nc4ccncc4s3)ccc2o1`, the figure is > 99.5 µM; as for `Cc1cc(N)ncc1NC(=O)C1CCOc2ccc(Cl)cc21` (stereo not given), > 99.5 µM.
In the case of `O=C(Nc1cncc2ccccc12)C1CN(C2CCNC2=O)C(=O)c2ccc(Cl)cc21` (stereo not given) it was 0.717 µM; in that of `O=C(Cc1cc(Cl)cc(NCc2ccc(F)c(Cl)c2)c1)Nc1cncc2ccccc12`, 2.49 µM; in that of `O=C(Cc1cc(Cl)cc(NCCc2ccc(Cl)cc2Cl)c1)Nc1cncc2ccccc12`, 3.91 µM.
As to `O=C(NCc1ccccc1)[C@@H]1CN(C(=O)CCl)CCN1S(=O)(=O)c1ccsc1` (stereo in doubt), the IC50 worked out at 0.501 µM.
As for `CN1C(=O)CCc2cc(N(C(=O)c3cnc[nH]3)C(C(=O)NCCc3cccc(F)c3)c3cccnc3)ccc21` (stereo not given), the figure is > 99 µM.
As for `Cn1nncc1CC(=O)NC(c1ccccc1)c1nc2ccccc2n1C` (stereo not given), the figure is 35.7 µM.
In the case of `O=CC(=O)N1CCN(Cc2cccc(Cl)c2)CC1` it was 56.6 µM and 49.6 µM.
Turning to `O=C(NCCc1cccc(F)c1)C(c1cccnc1)N(C(=O)c1cocn1)C1CCN(c2ccccc2F)C1` (stereo not given), the IC50 is > 99.5 µM.
As for `O=C(Cc1cc(Cl)cc(Nc2c(F)c(F)cc(F)c2F)c1)Nc1cncc2ccccc12`, the figure is 2.03 µM.
Compound `CC1CN(C(=O)c2cc(=O)[nH]c3ccccc23)CCN1c1cccc(Cl)c1` (stereo not given) returned an IC50 of 14.7 µM.
On to `CNC(=O)CN1Cc2ccc(Cl)cc2C2(CCN(c3cncc4ccc(F)cc34)C2=O)C1` (stereo not given), for which the IC50 amounted to 0.267 µM.
Regarding `CN(c1cc(Cl)cc(CC(=O)Nc2cncc3ccccc23)c1)C(c1ccccc1)c1ccccc1`, the half-maximal inhibitory concentration (IC50) worked out at 2.34 µM.
For `CC(C)(C)OC(=O)[C@H]1CCCN1c1cc(Cl)cc(CC(=O)Nc2cncc3ccccc23)c1` (stereo in doubt), the IC50 is 2.52 µM.
Compound `COC(=O)/C=C/C(=O)N(C(=O)[C@@H]1CCOc2ccc(Cl)cc21)c1cncc2ccccc12` (stereo in doubt) returned a concentration for half-maximal inhibition (IC50) of 0.5 µM.
